The target in assay [1] is T1, human B1R receptor (hB1R) (Homo sapiens, UniProt P46663).
T1 construct: host or cells: CHO K1 cells
T1 sequence (P46663 1-353): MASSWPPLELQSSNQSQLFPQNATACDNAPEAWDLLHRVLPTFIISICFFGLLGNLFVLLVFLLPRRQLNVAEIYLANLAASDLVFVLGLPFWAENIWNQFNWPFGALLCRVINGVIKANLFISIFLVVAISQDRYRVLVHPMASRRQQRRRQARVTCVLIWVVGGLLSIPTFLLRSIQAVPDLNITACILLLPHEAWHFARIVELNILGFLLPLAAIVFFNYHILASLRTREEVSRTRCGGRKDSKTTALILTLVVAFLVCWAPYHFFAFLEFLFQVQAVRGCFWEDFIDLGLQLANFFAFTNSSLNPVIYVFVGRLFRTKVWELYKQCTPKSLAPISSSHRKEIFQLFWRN
The assay is described as follows: FLIPR Ca2+ assay on human bradykinin 1 receptor (CHO K1 hB1R cells). It counts as cell-based. To be noted: test substance 10 μM; CHO K1 cells with human B1R gene; agonist Lys-Des-Arg9-bradykinin 0.5 nM; compared to maximum achievable inhibition. On the procedure:
(§1) The agonistic or antagonistic action of compounds can be quantified on the bradykinin 1 receptor (B1R) of humans and rats with ectopically expressing cell lines (CHO K1 cells) and with the aid of a Ca^2+-sensitive dye (Fluo-4) in the fluorescent imaging plate reader (FLIPR). The figure in percent activation refers to the Ca^2+ signal after addition of Lys-Des-Arg^9-bradykinin (0.5 nM) and Des-Arg^9-bradykinin (100 nM). Antagonists result in a suppression of the Ca^2+ inflow after the addition of the agonist. Percent inhibition values are given in comparison to the maximum achievable inhibition.
(§2) The agonistic or antagonistic action of substances can be determined on the bradykinin 1 receptor (B1R) of humans and rats by means of the following assay.
(§3) According to this assay the Ca^2+ inflow through the channel is quantified by means of a Ca^2+-sensitive dye (Fluo-4 type, Molecular Probes Europe BV, Leiden, Netherlands), in a Fluorescent Imaging Plate Reader (FLIPR, Molecular Devices, Sunnyvale, USA). Method:
(§4) Chinese hamster ovary cells (CHO K1 cells) are used, which are stably transfected with the human B1R gene (hB1R cells, Euroscreen s.a., Gosselies, Belgium), or with the B1R gene of rats (rB1R cells, Axxam, Milan, Italy). For functional investigations these cells are plated out on black 96-well plates with a clear floor (BD Biosciences, Heidelberg, Germany) in a density of 20,000/25,000 cells/well. The cells are incubated overnight with 10 vol. % FBS (foetal bovine serum, Gibco Invitrogen GmbH, Karlsruhe, Germany) at 37° C. and 5% CO2 in a culture medium (hB1R cells: Nutrient Mixture Ham's F12, Gibco Invitrogen GmbH, Karlsruhe, Germany; rB1R cells: D-MEM/F12, Gibco Invitrogen GmbH, Karlsruhe, Germany). The following day the cells are charged for 60 minutes at 37° C. with 2.13 μM Fluo-4 (Molecular Probes Europe BV, Leiden, Netherlands) in HBSS buffer (Hank's buffered saline solution, Gibco Invitrogen GmbH, Karlsruhe, Germany) together with […] (Sigma-Aldrich, Taufkirchen, Germany) and 10 mM HEPES (Sigma-Aldrich, Taufkirchen, Germany).
(§5) The plates are then washed twice with HBSS buffer and HBSS buffer is added which additionally contains 0.1% BSA (bovine serum albumin; Sigma-Aldrich, Taufkirchen, Germany), 5.6 mM glucose and 0.05% gelatin (Merck KGaA, Darmstadt, Germany). After further incubation for 20 minutes at room temperature the plates are used for the Ca^2+ measurement in the FLIPR. The Ca^2+-dependent fluorescence is measured both before and after the addition of substances (λex=488 nm, λem=540 nm). The quantification is carried out by measuring the highest fluorescence intensity (FC, fluorescence counts) over time.
(§6) The FLIPR protocol consists of two substance additions. First of all test substances (10 μM) are pipetted onto the cells and the Ca^2+ inflow is compared with the control (hB1R: Lys-Des-Arg9-bradykinin 0.5 nM; rB1R: Des-Arg9-bradykinin 100 nM). This gives the result in percent activation referred to the Ca^2+ signal after addition of Lys-Des-Arg9-bradykinin (0.5 nM), bzw. Des-Arg9-bradykinin (100 nM). After 10 minutes' incubation 0.5 nM Lys-Des-Arg9-bradykinin (hB1R) and 100 nM Des-Arg^9-bradykinin (rB1R) are applied and the inflow of Ca^2+ is likewise determined. Antagonists lead to a suppression of the Ca^2+ inflow. The percent inhibition compared to the maximum achievable inhibition is calculated. The compounds show a good activity on both human and rat receptors.
(§7) The agonistic and antagonistic action of the compounds according to the invention on the bradykinin 1 receptor (B1R) of humans and rats were determined as described above. Antagonists lead to a suppression of the Ca^2+ inflow. The % inhibition compared to the maximum achievable inhibition was calculated.

For assay [2], the target named is T2, B1R receptor of rats (rB1R) (Rattus norvegicus, UniProt P97583).
T2 construct: host or cells: CHO K1 cells
T2 sequence (P97583 1-337): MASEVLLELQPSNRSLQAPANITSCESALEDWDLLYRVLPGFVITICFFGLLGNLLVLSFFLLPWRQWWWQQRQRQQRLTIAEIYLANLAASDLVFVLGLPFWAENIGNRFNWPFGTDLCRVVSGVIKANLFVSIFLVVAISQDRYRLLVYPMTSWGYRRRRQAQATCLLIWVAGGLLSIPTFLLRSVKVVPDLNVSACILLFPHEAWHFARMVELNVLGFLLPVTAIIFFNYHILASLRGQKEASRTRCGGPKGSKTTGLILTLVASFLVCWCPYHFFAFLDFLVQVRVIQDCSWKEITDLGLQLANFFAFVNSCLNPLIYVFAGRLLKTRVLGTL
Nature of the assay: FLIPR Ca2+ assay on rat bradykinin 1 receptor (CHO K1 rB1R cells). It counts as cell-based. The settings on record: test substance 10 μM; CHO K1 cells with B1R gene of rats; agonist Des-Arg9-bradykinin 100 nM; compared to maximum achievable inhibition. On the procedure:
as §1, §2, §3, §4, §5, §6, §7

Regarding `Cc1cc(C)c(S(=O)(=O)N(C)CCOCC(=O)N2CCn3cccc3C2c2ccccc2)c(C)c1` (stereo not drawn) [Example 70, N,2,4,6-tetramethyl-N-(2-(2-oxo-2-(1-phenyl-3,4-dihydropyrrolo[1,2-a]pyrazin-2(1H)-yl)ethoxy)ethyl)benzenesulfonamide], the inhibition at 10 µM in assay [1] was 101%; in assay [2], 99%.
For “N-benzyl-N-(2-(2-(6-((dimethylamino)methyl)-1-ethyl-3,4-dihydropyrrolo[1,2-a]pyrazin-2(1H)-yl)-2-oxoethyl)ethyl)-4-methoxy-2,3,6-trimethylbenzenesulfonamide [Example 122]”, the “hB1R [10 μM] % Inhibition” value in assay [1] turned out to be 101%. For the same compound, the “rB1R [10 μM] % Inhibition” value in assay [2] is on record as 101%.
On to `COc1c(C)cc(S(=O)(=O)N(C)CCOCC(=O)N2CCn3c(CN(C)C)ccc3C2CCc2ccccc2)c(C)c1C` (stereo not drawn) [Example 110, N-(2-(2-(6-((dimethylamino)methyl)-1-phenethyl-3,4-dihydropyrrolo[1,2-a]pyrazin-2(1H)-yl)-2-oxoethoxy)ethyl)-4-methoxy-N,2,3,5-tetramethylbenzene-sulfonamide], for which the inhibition at 10 µM in assay [1] was found to be 103%; in assay [2] it was 100%.
With `COc1cc(C)c(S(=O)(=O)N(C)CCOCC(=O)N2CCn3c(CN4CCCCC4)ccc3C2c2ccccc2)c(C)c1` (stereo not drawn) [Example 16, 4-methoxy-N,2,6-trimethyl-N-(2-(2-oxo-2-(1-phenyl-6-(piperidin-1-ylmethyl)-3,4-dihydropyrrolo[1,2-a]pyrazin-2(1H)-yl)ethoxy)ethyl)benzenesulfonamide], the inhibition at 10 µM is 104% in assay [1] and 102% in assay [2].
For `O=C(CC(NS(=O)(=O)c1ccc2ccccc2c1)c1ccccc1)N1CCn2c(CN3CCCC3)ccc2C1` (stereo not drawn) [Example 8, N-(3-oxo-1-phenyl-3-(6-(pyrrolidin-1-ylmethyl)-3,4-dihydropyrrolo[1,2-a]pyrazin-2(1H)-yl)propyl)naphthalene-2-sulfonamide], in that order: 95% and 42%.
For `COc1cc(C)c(S(=O)(=O)N(C)CCOCC(=O)N2CCn3c(CN(C)C)ccc3C2c2cccs2)c(C)c1` (stereo not drawn) [Example 17, N-(2-(2-(6-((dimethylamino)methyl)-1-(thiophen-2-yl)-3,4-dihydropyrrolo[1,2-a]pyrazin-2(1H)-yl)-2-oxoethoxy)ethyl)-4-methoxy-N,2,6-trimethylbenzene-sulfonamide], in that order: 102% and 102%.
As for `COc1cc(C)c(S(=O)(=O)N(C)CCOCC(=O)N2CCn3cccc3C2c2cccnc2)c(C)c1C` (stereo not drawn) [Example 81, 4-methoxy-N,2,3,6-tetramethyl-N-(2-(2-oxo-2-(1-(pyridin-3-yl)-3,4-dihydropyrrolo[1,2-a]pyrazin-2(1H)-yl)ethoxy)ethyl)benzenesulfonamide], the inhibition at 10 µM in assay [1] is 98%; in assay [2], 99%.
The like results for `COc1cc(C)c(S(=O)(=O)N(CCOCC(=O)N2CCn3cccc3C2c2cccc(F)c2)CC(C)C)c(C)c1C` (stereo not drawn) [Example 24, N-(2-(2-(1-(3-fluorophenyl)-3,4-dihydropyrrolo[1,2-a]pyrazin-2(1H)-yl)-2-oxoethoxy)ethyl)-N-isobutyl-4-methoxy-2,3,6-trimethylbenzenesulfonamide] were, in that order, 32% and 99%.
As to `Cc1cc(C)c(S(=O)(=O)N(C)CCOCC(=O)N2CCn3cccc3C2c2cccc(F)c2)c(C)c1` (stereo not drawn) [Example 73, N-(2-(2-(1-(3-fluorophenyl)-3,4-dihydropyrrolo[1,2-a]pyrazin-2(1H)-yl)-2-oxoethoxy)ethyl)-N,2,4,6-tetramethylbenzenesulfonamide], the inhibition at 10 µM was found to be 102% in assay [1] and 99% in assay [2].
Regarding `COc1cc(C)c(S(=O)(=O)N(C)CCOCC(=O)N2CCn3ccnc3C2)c(C)c1` [Example 56, N-(2-(2-(5,6-dihydroimidazo[1,2-a]pyrazin-7(8H)-yl)-2-oxoethoxy)ethyl)-4-methoxy-N,2,6-trimethylbenzenesulfonamide], the inhibition at 10 µM in assay [1] worked out at 85%; in assay [2], 97%.
The like results for `Cc1cc(C)c(S(=O)(=O)N(C)CCOCC(=O)N2CCn3c(CN(C)C)ccc3C2Cc2ccccc2)c(C)c1` (stereo not drawn) [Example 143, N-(2-(2-(1-benzyl-6-((dimethylamino)methyl)-3,4-dihydropyrrolo[1,2-a]pyrazin-2(1H)-yl)-2-oxoethoxy)ethyl)-N,2,4,6-tetramethylbenzenesulfonamide] were, in that order, 100% and 99%.
In the case of `CCCC1c2cccn2CCN1C(=O)COCCN(Cc1ccccc1)S(=O)(=O)c1c(C)cc(OC)c(C)c1C` (stereo not drawn) [Example 123, N-benzyl-4-methoxy-2,3,6-trimethyl-N-(2-(2-oxo-2-(1-propyl-3,4-dihydropyrrolo[1,2-a]pyrazin-2(1H)-yl)ethoxy)ethyl)benzenesulfonamide], the inhibition at 10 µM in assay [1] was 41%; in assay [2], 86%.
`CCCCC1c2ccc(CN(C)C)n2CCN1C(=O)COCCN(C)S(=O)(=O)c1cc(C)c(OC)c(C)c1C` (stereo not drawn) [Example 111, N-(2-(2-(1-butyl-6-((dimethylamino)methyl)-3,4-dihydropyrrolo[1,2-a]pyrazin-2(1H)-yl)-2-oxoethoxy)ethyl)-4-methoxy-N,2,3,5-tetramethylbenzene-sulfonamide]: the inhibition at 10 µM in assay [1] and in assay [2] was 100% each time.
As for `O=C(CC(NS(=O)(=O)c1ccc2ccccc2c1)c1ccccc1)N1CCn2c(ccc2-c2ccncc2)C1` (stereo not drawn) [Example 168, N-(3-Oxo-1-phenyl-3-(6-(pyridin-4-yl)-3,4-dihydropyrrolo[1,2-a]pyrazin-2(1H)-yl)propyl)naphthalene-2-sulfonamide], the values for the inhibition at 10 µM in assay [1] and in assay [2] were 55% and 57%, respectively.
In the case of `Cc1cc(C)c(S(=O)(=O)N(C)CCOCC(=O)N2CCn3cccc3C2c2cccc(C(F)(F)F)c2)c(C)c1` (stereo not drawn) [Example 75, N,2,4,6-tetramethyl-N-(2-(2-oxo-2-(1-(3-(trifluoromethyl)phenyl)-3,4-dihydropyrrolo[1,2-a]pyrazin-2(1H)-yl)ethoxy)ethyl)benzenesulfonamide], the inhibition at 10 µM in assay [1] worked out at 63%; in assay [2] it was 48%.
